# From patent US8148392B2, “2-indolyl imidazo [4,5-d] phenanthroline derivatives and their use in the treatment of cancer” (Lorus Therapeutics Inc., priority 2005, dated 2012)
# pIC50: −log10 of the molar value. Like-named read-outs stand apart in the source and are kept apart here.
# What was measured:
# [1] = test system: human colon carcinoma HT-29 cells; test: XTT cell proliferation assay, HT-29; assay type: cell-based
# Method: The ability of compounds of Formula I to inhibit the proliferation of human colon carcinoma HT-29 cells was tested as follows. HT-29 colon carcinoma cells used in this example and subsequent examples were maintained as a monolayer in a growth medium; McCoy's 5A modified medium (Sigma, St. Louis, Mo.), supplemented with 2 mM L-glutamine (Gibco, Grand Island, N.Y.), 10% fetal bovine serum (FBS) (Multicell, WISENT Inc. St-Bruno, QC), antibiotic-antimycotic (Multicell), at 37° C. in a 5% CO2-humidified incubator. Cells were transferred onto 150 mm tissue culture plates and grown until sub-confluency (70-80%) prior to their use. The in vitro antiproliferative activity of compounds was evaluated by incubating the cells with varying concentrations of the compounds as shown in Table 1 for 6-7 days. The efficacy of these compounds in this cell proliferation assay was measured based in the ability of live cells to reduce the tetrazolium salt XTT to orange colored compounds of formazan (XTT cell proliferation kit II, Roche Applied Science, Montreal, QC).
# The ability of compounds of Formula I to inhibit the proliferation of human colon carcinoma HT-29 cells was tested as described above in Example 13.
# (§1) Cell growth inhibition IC50 (μM) by compounds of Formula I was tested on various cancer cell types by XTT cell proliferation assay. The growth inhibitory effects of the compounds of Formula I as shown below for the melanoma cell line SK-MEL-2 were reproducible by Lorus Therapeutics Inc.
# [2] = test system: HCT-116 colon cancer cells; test: XTT cell proliferation assay, HCT-116; assay type: cell-based, human; conditions: read-out: IC50 (cell growth inhibition)
# Method: as §1
# H-460 lung cancer cells = test: XTT cell proliferation assay, H-460; assay type: cell-based, human; conditions: read-out: IC50 (cell growth inhibition)
# Method: as §1
# [3] = test system: DU-145 prostate cancer cells; test: XTT cell proliferation assay, DU-145; assay type: cell-based, human; conditions: read-out: IC50 (cell growth inhibition)
# Method: as §1
# [4] = test system: PC-3 prostate cancer cells; test: XTT cell proliferation assay, PC-3; assay type: cell-based, human; conditions: read-out: IC50 (cell growth inhibition)
# Method: as §1
# [5] = test system: MDA-MB-231 breast cancer cells; test: XTT cell proliferation assay, MDA-MB-231; assay type: cell-based, human; conditions: read-out: IC50 (cell growth inhibition)
# Method: as §1
# [6] = test system: MDA-MB-435 breast cancer cells; test: XTT cell proliferation assay, MDA-MB-435; assay type: cell-based, human; conditions: read-out: IC50 (cell growth inhibition)
# Method: as §1
# CCRF-CEM leukemia cells = test: XTT cell proliferation assay, CCRF-CEM; assay type: cell-based, human; conditions: read-out: IC50 (cell growth inhibition)
# Method: as §1
# MOLT-4 leukemia cells = test: XTT cell proliferation assay, MOLT-4; assay type: cell-based, human; conditions: read-out: IC50 (cell growth inhibition)
# Method: as §1
# SK-MEL-2 melanoma cells = test: XTT cell proliferation assay, SK-MEL-2; assay type: cell-based, human; conditions: read-out: IC50 (cell growth inhibition)
# Method: as §1
# KLF4 [7] = test: KLF4 gene expression by RT-PCR, HT-29; assay type: cell-based, human; conditions: HT-29, relative to vehicle control as 1
# Method: To determine whether compounds of Formula I can chelate zinc in cells, the effect of compound 3 on the expression level of a zinc-regulated gene, metallothionein 1A (MT1A), in human colon carcinoma HT-29 cells, was determined. HT-29 cells, 1×10^6 cells in 10 mL volume of the growth medium were seeded in 100 mm dishes and incubated overnight at 37° C. The medium was removed and replaced with the growth medium containing 35 μM ZnCl2, 1 μM or 4 μM TPEN (NNNN-tetrakis(2-pyridyl-methyl)ethylenediamine), or 1 μM or 4 μM compound 3, or 0.1% DMSO vehicle control. After incubation for 16 hours, the cells were detached by trypsinization, collected by centrifugation and washed once with PBS. Total RNA was extracted by using TRIZOL (Invitrogen, Life Technologies, Carlsbad, Calif.), following manufacturer's instruction, and the level of MT1A mRNA was measured by real time PCR using the comparative CT method as follows. First strand cDNA was synthesized from 200 ng total RNA in Biometra Tpersonal Thermal Cycler (Abgene, UK), using pd(N)6 random hexamer (Amersham Biosciences, Piscataway, N.J.) and SuperScript™ II Reverse Transcriptase kit (Invitrogen) by following manufacturer's protocol. Real-time PCR was performed in ABI Prism 7000 Sequence Detection System (Applied Biosystems Inc., ABI, Foster City, Calif.), using 5 μL of cDNA synthesized by above-mentioned procedure and respective TaqMan® Gene Expression Assays (ABI) by following ABI TaqMan® Universal PCR master mix protocol.
# The ability of compounds of Formula I to modulate the mRNA level of a transition metal-regulated tumour suppressor gene was determined in vitro as follows. Compound 3 was tested to determine its ability to increase the expression of zinc-regulated tumour suppressor KLF4 mRNA in colon carcinoma HT-29 cells. […] HT-29 cells were incubated for 16 hours with DMSO as a vehicle control, 35 μM ZnCl2, 1 μM or 4 μM of compound 3, or 1 μM or 4 μM TPEN for 16 hours and mRNA was extracted from the cells as described in Example 19. The expression of KLF4 mRNA was analyzed by real-time polymerase chain reaction using the comparative CT method also as described in Example 19. Compound 3 induced the expression of KLF4 mRNA (approximately 8-fold) in HT-29 cells compared with HT-29 cells treated with vehicle alone (See FIG. 8).
# (§2) Gene expression levels of KLF4, induced by compounds of Formula I, were also examined on various cancer cell types by RT-PCR. Fold changes in KLF4 in compound-treated cells were expressed relative to KLF4 expression in vehicle control-treated cells of respective cell type as “1”. […] Additionally, xenografts of MDA-MB-435 implanted into mammary fat pads of female SCID mice have shown immunohistochemical staining consistent with melanocytic origin (Ellison G, Klinowska T, Westwood R F, Docter E, French T, Fox J C. (2002) Mol Pathol. 55(5): 294-299). The breast cancer cell line MDA-MB-435 may be expected to function differently than the other breast cancer cell lines.
# The change in gene expression of KLF4 upon zinc depletion following compound 3 treatment was determined by RT-PCR as follows. HT-29 cells were treated with 1 μM compound 3 for the indicated time (FIG. 39A) or HT-29 cells were treated with 1 μM compound 3, 35 μM ZnCl2 or compund 3 and ZnCl2 together for 16 hr (FIG. 39B). Total RNA was extracted and gene expression level was determined by RT-PCR.
# Fold change in KLF4 gene expression was presented relative to KLF4 expression in non-specific siRNA-transfected cells treated with vehicle control.
# KLF4 [8] = test: KLF4 gene expression by RT-PCR, HCT-116; assay type: cell-based, human; conditions: HCT-116, relative to vehicle control as 1
# Description: as §2
# KLF4 [9] = test: KLF4 gene expression by RT-PCR, H-460; assay type: cell-based, human; conditions: H-460, relative to vehicle control as 1
# Description: as §2
# Expressions of KLF2, 4 and 6 genes in H-460 cells, treated with vehicle control or 2.5 μM compound 3 or compound 7, were measured by RT-PCR. Gene expression was presented relative to respective gene expression in vehicle control-treated group as “1”.
# KLF4 [10] = test: KLF4 gene expression by RT-PCR, DU-145; assay type: cell-based, human; conditions: DU-145, relative to vehicle control as 1
# Description: as §2
# KLF4 [11] = test: KLF4 gene expression by RT-PCR, PC-3; assay type: cell-based, human; conditions: PC-3, relative to vehicle control as 1
# Description: as §2
# KLF4 [12] = test: KLF4 gene expression by RT-PCR, MDA-MB-231; assay type: cell-based, human; conditions: MDA-MB-231, relative to vehicle control as 1
# Description: as §2
# KLF4 [13] = test: KLF4 gene expression by RT-PCR, MDA-MB-435; assay type: cell-based, human; conditions: MDA-MB-435, relative to vehicle control as 1
# Description: as §2
# KLF4 [14] = test: KLF4 gene expression by RT-PCR, CCRF-CEM; assay type: cell-based, human; conditions: relative to vehicle control as 1
# Description: as §2
# KLF4 [15] = test: KLF4 gene expression by RT-PCR, MOLT-4; assay type: cell-based, human; conditions: MOLT-4, relative to vehicle control as 1
# Description: as §2
# KLF4 [16] = test: KLF4 gene expression by RT-PCR, SK-MEL-2; assay type: cell-based, human; conditions: SK-MEL-2, relative to vehicle control as 1
# Description: as §2
smiles,measurement,setting,value
CC(C)(C)c1ccc2[nH]c(C(C)(C)C)c(-c3nc4c5cccnc5c5ncccc5c4[nH]3)c2c1 [Compound 63],IC50,"[1]; HT-29, XTT, as Example 13, Table 7",0.2 µg/mL
same,pIC50,"[1]; HT-29 colon, Table 8, read-out: IC50 (cell growth inhibition)",6.70
same,pIC50,[2],6.52
same,pIC50,H-460 lung cancer cells,6.40
same,pIC50,[3],6.40
same,pIC50,[4],6.49
same,pIC50,[5],5.43
same,pIC50,[6],6.30
same,pIC50,CCRF-CEM leukemia cells,6.52
same,pIC50,MOLT-4 leukemia cells,6.70
same,pIC50,SK-MEL-2 melanoma cells,6.77
same,KLF4 (gene fold increase),KLF4 [7],5.98 fold
same,KLF4 (gene fold increase),KLF4 [8],2.82 fold
same,KLF4 (gene fold increase),KLF4 [9],1.55 fold
same,KLF4 (gene fold increase),KLF4 [10],12.95 fold
same,KLF4 (gene fold increase),KLF4 [11],1.34 fold
same,KLF4 (gene fold increase),KLF4 [12],1.77 fold
same,KLF4 (gene fold increase),KLF4 [13],7.67 fold
same,KLF4 (gene fold increase),KLF4 [14],76.37 fold
same,KLF4 (gene fold increase),KLF4 [15],223.63 fold
same,KLF4 (gene fold increase),KLF4 [16],5.46 fold
